For twelve molecules, MIC results are on record in DBAASP.

Among the test systems are Staphylococcus xylosus; Listeria innocua; Micrococcus luteus A270; Escherichia coli; Staphylococcus aureus MR; Escherichia coli D31; Staphylococcus aureus; Candida albicans; Salmonella typhimurium; Enterococcus faecium; Pseudomonas aeruginosa; Acinetobacter baumannii; Klebsiella pneumoniae; Streptococcus pneumoniae.
Holding throughout (assay): ≥ marks a high value that may be exact or a test limit, other limits are often not marked, values filed in µg/mL are converted to µM
The subject of assay [1] is Escherichia coli DH5alpha.
In assay [2] the test system is Bacillus subtilis ATCC 6633.
The test system of assay [3] is Staphylococcus aureus ATCC 25923.
Assay [4] has as its system Pseudomonas aeruginosa PAO1.
The subject of assay [5] is Staphylococcus aureus ATCC 43300.
In assay [6] the test system is Streptococcus mutans ATCC 25175.
The test system of assay [7] is Pseudomonas aeruginosa ATCC 15442.
Assay [8] relates to Candida albicans ATCC 10231.
The test system of assay [9] is Escherichia coli ATCC 25922.
For assay [10], the system named is Candida albicans ATCC 90028.
Assay [11] relates to Staphylococcus aureus NCTC 8325.
Assay [12] has as its system Micrococcus luteus ATCC 9341.
Assay [13] concerns Pseudomonas aeruginosa H1001.

Structures are written as SMILES. Values after ≈ are worked out from the molar mass of the structure shown.

In general, MIC refers to the least concentration at which growth counts as inhibited. A high value points to a less susceptible organism. Turning to `NCCCC[C@H](NC(=O)[C@H](CCCN=C(N)N)NC(=O)[C@H](CCCCN)NC(=O)CNC(=O)[C@H](CO)NC(=O)CNC(=O)[C@H](CCCCN)NC(=O)[C@H](CCCN=C(N)N)NC(=O)[C@@H](N)CCCCN)C(=O)O` [KRKGSGKRK], the minimal inhibitory concentration (MIC) (in assay [1]; in the assay on Staphylococcus xylosus) was at least 64 µM in each case.
With `CC[C@H](C)[C@H](NC(=O)[C@H](CC(C)C)NC(=O)[C@@H](NC(=O)[C@@H](N)CC(C)C)[C@@H](C)CC)C(=O)N[C@@H](CCCCN)C(=O)N[C@@H](CCCN=C(N)N)C(=O)N[C@@H](CCCCN)C(=O)O` [LILIKRK], the MIC (in assay [1]; in the assay on Staphylococcus xylosus) was at least 64 µM in each case.
Turning to `CC(C)[C@H](NC(=O)[C@@H]1CCCN1C(=O)[C@@H](NC(=O)[C@H](Cc1ccccc1)NC(=O)[C@H](CCC(=O)O)NC(=O)[C@H](CCCCN)NC(=O)CNC(=O)[C@H](Cc1ccccc1)NC(=O)[C@H](CC(N)=O)NC(=O)[C@H](CCCN=C(N)N)NC(=O)[C@H](C)N)[C@@H](C)O)C(=O)O` [ARNFGKEFTPV], the MIC in the assay with Listeria innocua was 6 µM (≈ 7.59 µg/mL); against Micrococcus luteus A270, 6 µM (≈ 7.59 µg/mL); in the assay on Escherichia coli it was 12 µM (≈ 15.2 µg/mL).
`CC[C@H](C)[C@H](NC(=O)[C@H](Cc1cnc[nH]1)NC(=O)[C@H](CCC(N)=O)NC(=O)[C@H](CC(C)C)NC(=O)[C@@H](N)Cc1ccccc1)C(=O)N[C@H](C(=O)NCC(=O)N[C@@H](C)C(=O)N[C@@H](CC(C)C)C(=O)NCC(=O)N[C@@H](CCCCN)C(=O)N[C@@H](CC(C)C)C(=O)N[C@@H](Cc1ccccc1)C(N)=O)[C@@H](C)CC` [FLQHIIGALGKLF]: the MIC in assay [2] is 25 µM (≈ 36.4 µg/mL); in assay [3] it was 1.6 µM (≈ 2.33 µg/mL); in [4], above 100 µM; in assay [5], 6.2 µM (≈ 9.03 µg/mL); in assay [6], 6.2 µM (≈ 9.03 µg/mL); in assay [7], at least 50 µM. The minimal inhibitory concentration (MIC) in the assay with Staphylococcus aureus MR is 6.2 µM (≈ 9.03 µg/mL); in assay [8], 50 µM (≈ 72.8 µg/mL); with Escherichia coli D31, at least 50 µM; in [9], 12.5 µM (≈ 18.2 µg/mL).
As for `CC[C@H](C)[C@@H]1NC(=O)[C@H](C)NC(=O)[C@@H](NC(=O)[C@@H](NC(=O)[C@@H](NC(=O)[C@H](CCCCN)NC(=O)[C@H](C)NC(=O)[C@H](C)NC(=O)[C@H](CCSC)NC(=O)CNC(=O)[C@H](C)NC(=O)[C@@H](NC(=O)[C@@H](NC(=O)[C@@H]2CCCN2C(=O)[C@H](CC(C)C)NC(=O)[C@@H](N)Cc2ccccc2)[C@@H](C)CC)[C@@H](C)CC)C(C)C)[C@@H](C)CC)CSSC[C@@H](C(=O)O)NC(=O)[C@H](CCCCN)NC(=O)[C@H](CCCCN)NC(=O)[C@H]([C@@H](C)O)NC1=O` [FLPIIAGMAAKVICAITKKC], the MIC was 13 µM (≈ 27.2 µg/mL) in assay [10], 6 µM (≈ 12.5 µg/mL) in [11] and 50 µM (≈ 104 µg/mL) in assay [9].
As to `CC[C@H](C)[C@H](N)C(=O)N[C@@H](CC(C)C)C(=O)N1CCC[C@H]1C(=O)N[C@@H](Cc1c[nH]c2ccccc12)C(=O)N[C@@H](CCCCN)C(=O)N[C@@H](Cc1c[nH]c2ccccc12)C(=O)N1CCC[C@H]1C(=O)N[C@@H](Cc1c[nH]c2ccccc12)C(=O)N[C@@H](Cc1c[nH]c2ccccc12)C(=O)N1CCC[C@H]1C(=O)N[C@@H](C)C(=O)N[C@@H](CCCN=C(N)N)C(=O)N[C@@H](CCCN=C(N)N)C(N)=O` [ILPWKWPWWPARR], the minimum inhibitory concentration (MIC) in assay [12] came to 1.6 µM (≈ 2.87 µg/mL); in the assay with Staphylococcus aureus it was 44.6 µM (≈ 80 µg/mL); with Candida albicans it was 0.0045 µM (≈ 0.00806 µg/mL); against Escherichia coli, 2.79 µM (≈ 5 µg/mL); in the assay with Salmonella typhimurium it was 2.79 µM (≈ 5 µg/mL).
For `CC[C@H](C)[C@H](NC(=O)[C@H](Cc1cnc[nH]1)NC(=O)CNC(=O)CN)C(=O)N[C@@H](CCCN=C(N)N)C(=O)N[C@@H](CCCN=C(N)N)C(=O)N[C@H](C(=O)N[C@H](C(=O)N[C@@H](CCCN=C(N)N)C(=O)N[C@@H](CCCCN)C(=O)N[C@H](C(=O)N[C@H](C(=O)N[C@@H](Cc1cnc[nH]1)C(=O)N[C@H](C(=O)N[C@H](C(=O)N[C@@H](CCCCN)C(=O)N[C@@H](CCCCN)C(=O)NCC(=O)NCC(=O)N[C@@H](CS)C(N)=O)[C@@H](C)CC)[C@@H](C)CC)[C@@H](C)CC)[C@@H](C)CC)[C@@H](C)CC)[C@@H](C)CC` [GGHIRRIIRKIIHIIKKGGC], the MIC with Enterococcus faecium was 3.3 µM (≈ 7.48 µg/mL); against Pseudomonas aeruginosa, 4 µM (≈ 9.07 µg/mL); in [5] it was 1.5 µM (≈ 3.4 µg/mL); with Acinetobacter baumannii, 10.7 µM (≈ 24.3 µg/mL); against Klebsiella pneumoniae it was 8 µM (≈ 18.1 µg/mL); in assay [9] it was 1.3 µM (≈ 2.95 µg/mL). Further, the minimum inhibitory concentration (MIC) with Streptococcus pneumoniae came to 4 µM (≈ 9.07 µg/mL).
In assay [13], `NCCCC[C@H](NC(=O)[C@H](Cc1c[nH]c2ccccc12)NC(=O)[C@H](Cc1c[nH]c2ccccc12)NC(=O)[C@@H]1CCCN1C(=O)[C@H](Cc1c[nH]c2ccccc12)NC(=O)[C@@H](N)CCCCN)C(=O)N[C@@H](Cc1c[nH]c2ccccc12)C(=O)N[C@@H](CCCN=C(N)N)C(=O)N[C@@H](CCCN=C(N)N)C(N)=O` [KWPWWKWRR] returned an MIC of at least 87.5 µM.
Turning to `CC[C@H](C)[C@H](NC(=O)[C@H](CC(C)C)NC(=O)[C@H](CCCCN)NC(=O)[C@H](CCCN=C(N)N)NC(=O)[C@@H](N)CCCCN)C(=O)N[C@@H](CCCCN)C(=O)N[C@@H](CCCN=C(N)N)C(=O)N[C@@H](CCCCN)C(=O)O` [KRKLIKRK], the MIC (in assay [1]; in the assay on Staphylococcus xylosus) was at least 64 µM in each case.
On to `CC[C@H](C)[C@H](NC(=O)[C@H](CC(C)C)NC(=O)[C@@H](NC(=O)[C@H](CC(C)C)NC(=O)[C@@H](NC(=O)[C@H](CCCCN)NC(=O)[C@H](CCCN=C(N)N)NC(=O)[C@H](CCCCN)NC(=O)[C@H](CCCN=C(N)N)NC(=O)[C@@H](N)CCCCN)[C@@H](C)CC)[C@@H](C)CC)C(=O)N[C@@H](CCCCN)C(=O)N[C@@H](CCCN=C(N)N)C(=O)N[C@@H](CCCCN)C(=O)O` [KRKRKILILIKRK], for which the minimal inhibitory concentration (MIC) in assay [1] amounted to 8 µM (≈ 13.5 µg/mL); in the assay on Staphylococcus xylosus, 0.5 µM (≈ 0.847 µg/mL).
Molecule `CC(C)C[C@H](NC(=O)[C@@H](NC(=O)[C@H](CCCCN)NC(=O)[C@H](CO)NC(=O)[C@H](CC(C)C)NC(=O)[C@H](CC(C)C)NC(=O)[C@H](CO)NC(=O)[C@H](C)NC(=O)[C@H](CC(C)C)NC(=O)[C@H](Cc1ccccc1)NC(=O)[C@@H]1CCCN1C(=O)[C@H](CC(C)C)NC(=O)[C@@H](N)Cc1ccccc1)C(C)C)C(N)=O` [FLPFLASLLSKVL] gave an MIC in assay [11] of at least 80 µM.
`CC[C@H](C)[C@H](NC(=O)[C@H](CCCCN)NC(=O)[C@H](CCCCN)NC(=O)[C@H](Cc1cnc[nH]1)NC(=O)[C@@H](NC(=O)[C@H](CCCN=C(N)N)NC(=O)[C@H](CS)NC(=O)[C@H](CC(C)C)NC(=O)[C@@H](N)CC(C)C)C(C)C)C(=O)N[C@@H](C)C(=O)O` [LLCRVHKKIA]: in [13], the MIC is at least 42.4 µM.
